Reference: patent US5378836A, “Rapamycin oximes and hydrazones” (American Home Products Corporation, priority 1993, dated 1995)
Where a name gives a salt, the structure may show the parent alone. Read-outs that look alike come from different tables or passages of the source.

Key:
[1] = tested on: thymocytes (T-cell proliferation); assay: comitogen-induced thymocyte proliferation procedure (LAF); assay type: cell-based, BALB/c mice; conditions: Mus musculus; for inhibition at 0.1 µM: T-cell, read-out: LAF % Inhib. (percent inhibition of T-cell proliferation); for IC50: Thymocyte, read-out: LAF IC50
Protocol: (§1) Immunosuppressive activity for representative compounds of this invention was evaluated in an in vitro standard pharmacological test procedure to measure lymphocyte proliferation (LAF) and in an in vivo standard pharmacological test procedure which evaluated the survival time of a pinch skin graft.
The comitogen-induced thymocyte proliferation procedure (LAF) was used as an in vitro measure of the immunosuppressive effects of representative compounds. Briefly, cells from the thymus of normal BALB/c mice are cultured for 72 hours with PHA and IL-1 and pulsed with tritiated thymidine during the last six hours. Cells are cultured with and without various concentrations of rapamycin, cyclosporin A, or test compound. Cells are harvested and incorporated radioactivity is determined. Inhibition of lymphoproliferation is assessed as percent change in counts per minute from non-drug treated controls. For each compound evaluated, rapamycin was also evaluated for the purpose of comparison. An IC50 was obtained for each test compound as well as for rapamycin.

[2] = tested on: pinch skin graft from male BAB/c donors transplanted to male C3 H(H-2K) recipients; assay: survival time of a pinch skin graft; assay type: in vivo, male C3 H(H-2K) recipients (mouse strain); conditions: dose of 4 mg/kg, intraperitoneally or orally; untreated control usually rejected within 6-7 days
Protocol: as §1
Representative compounds of this invention were also evaluated in an in vivo test procedure designed to determine the survival time of pinch skin graft from male BAB/c donors transplanted to male C3 H(H-2K) recipients. The method is adapted from Billingham R. E. and Medawar P. B., J. Exp. Biol. 28:385-402, (1951). Briefly, a pinch skin graft from the donor was grafted on the dorsum of the recipient as a allograft, and an isograft was used as control in the same region. The recipients were treated with either varying concentrations of test compounds intraperitoneally or orally. Rapamycin was used as a test control. Untreated recipients serve as rejection control. The graft was monitored daily and observations were recorded until the graft became dry and formed a blackened scab. This was considered as the rejection day. The mean graft survival time (number of days±S.D.) of the drug treatment group was compared with the control group. […] Results are expressed as the mean survival time in days. Untreated (control) pinch skin grafts are usually rejected within 6-7 days. The results shown in Table 1 are based on a dose of 4 mg/kg of test compound. A survival time of 12.0±1.7 days was obtained for rapamycin at 4 mg/kg.

[3] = tested on: Candida albicans; conditions: both in vitro and in vivo; cited from earlier work
[4] = alone or in combination with picibanil; cited from earlier work
[5] = tested on: experimental allergic encephalomyelitis model; conditions: a model for multiple sclerosis; cited from earlier work
[6] = tested on: IgE-like antibodies; conditions: in vivo; cited from earlier work
[7] = thymus cells cultured 72 h with PHA and IL-1, tritiated thymidine during last six hours

For `CO[C@H]1C[C@@H]2CC[C@@H](C)[C@@](O)(O2)C(=O)C(=O)N2CCCC[C@H]2C(=O)O[C@H]([C@H](C)C[C@@H]2CC[C@@H](OC(=O)NCCc3ccccn3)[C@H](OC)C2)CC(=NO)[C@H](C)/C=C(\C)[C@@H](O)[C@@H](OC)C(=O)[C@H](C)C[C@H](C)/C=C/C=C/C=C/1C` [Example 2, Rapamycin 27-oxime, 42-ester with 2-(pyridin-2-yl)-ethyl-carbamic acid], the inhibition at 0.1 µM [1] was 94%, the IC50 [1, 7] was 0.6 nM and the “Skin Graft mean survival time (days ± SD)” value [2] was 8.0 ± 0.6 days.
`CO[C@H]1C[C@@H]2CC[C@@H](C)[C@@](O)(O2)C(=O)C(=O)N2CCCC[C@H]2C(=O)O[C@H]([C@H](C)C[C@@H]2CC[C@@H](OC(=O)NCCO)[C@H](OC)C2)CC(=NO)[C@H](C)/C=C(\C)[C@@H](O)[C@@H](OC)C(=O)[C@H](C)C[C@H](C)/C=C/C=C/C=C/1C` [Example 4, Rapamycin 27-oxime, 42-ester with 2-hydroxyethyl carbamic acid] showed an inhibition at 0.1 µM [1] of 89% and an IC50 [1, 7] of 17.8 nM.
In the case of `CO[C@H]1C[C@@H]2CC[C@@H](C)[C@@](O)(O2)C(=O)C(=O)N2CCCC[C@H]2C(=O)O[C@H]([C@H](C)C[C@@H]2CC[C@@H](OS(=O)(=O)O)[C@H](OC)C2)CC(=NO)[C@H](C)/C=C(\C)[C@@H](O)[C@@H](OC)C(=O)[C@H](C)C[C@H](C)/C=C/C=C/C=C/1C` [Example 6, Rapamycin 27-oxime, 42-sulfate ester pyridine salt], the inhibition at 0.1 µM [1] is reported as 71% and the “Skin Graft mean survival time (days ± SD)” value [2] is reported as 9.8 ± 0.4 days.
With `CO[C@H]1C[C@@H]2CC[C@@H](C)[C@@](O)(O2)C(=O)C(=O)N2CCCC[C@H]2C(=O)O[C@H]([C@H](C)C[C@@H]2CC[C@@H](OC(N)=O)[C@H](OC)C2)CC(=NO)[C@H](C)/C=C(\C)[C@@H](O)[C@@H](OC)C(=O)[C@H](C)C[C@H](C)/C=C/C=C/C=C/1C` [Example 8, Rapamycin 27-oxime, 42-ester with carbamic acid] the inhibition at 0.1 µM [1] was 87%, the IC50 [1, 7] was 13.9 nM and the “Skin Graft mean survival time (days ± SD)” value [2] was 7.0 ± 0.0 days.
`CO[C@H]1C[C@@H]2CC[C@@H](C)[C@@](O)(O2)C(=O)C(=O)N2CCCC[C@H]2C(=O)O[C@H]([C@H](C)C[C@@H]2CC[C@@H](OS(=O)(=O)c3cccc4cccnc34)[C@H](OC)C2)CC(=NO)[C@H](C)/C=C(\C)[C@@H](O)[C@@H](OC)C(=O)[C@H](C)C[C@H](C)/C=C/C=C/C=C/1C` [Example 10, Rapamycin 27-oxime, 42-ester with 8-quinolinesulfonic acid] gave an inhibition at 0.1 µM [1] of 20% and an IC50 [1, 7] of 300 nM.
Compound `CO/N=C1\C[C@@H]([C@H](C)C[C@@H]2CC[C@@H](OS(=O)(=O)c3cccc4cccnc34)[C@H](OC)C2)OC(=O)[C@@H]2CCCCN2C(=O)C(=O)[C@]2(O)O[C@@H](CC[C@H]2C)C[C@H](OC)/C(C)=C/C=C/C=C/[C@@H](C)C[C@@H](C)C(=O)[C@H](OC)[C@H](O)/C(C)=C/[C@H]1C` [Example 11, Rapamycin (E)-27-O-(methyl)oxime, 42-ester with 8-quinolinesulfonic acid] has an inhibition at 0.1 µM [1] of 17% and an IC50 [1, 7] of 255 nM.
`CO/N=C1/C[C@@H]([C@H](C)C[C@@H]2CC[C@@H](OS(=O)(=O)c3cccc4cccnc34)[C@H](OC)C2)OC(=O)[C@@H]2CCCCN2C(=O)C(=O)[C@]2(O)O[C@@H](CC[C@H]2C)C[C@H](OC)/C(C)=C/C=C/C=C/[C@@H](C)C[C@@H](C)C(=O)[C@H](OC)[C@H](O)/C(C)=C/[C@H]1C` [Example 12, Rapamycin (Z)-27-O-(methyl)oxime, 42-ester with 8-quinolinesulfonic acid] showed an inhibition at 0.1 µM [1] of 30% and an IC50 [1, 7] of 210 nM.
For `CO/N=C1/C[C@@H]([C@H](C)C[C@@H]2CC[C@@H](OC(=O)Nc3ccc([N+](=O)[O-])cc3)[C@H](OC)C2)OC(=O)[C@@H]2CCCCN2C(=O)C(=O)[C@]2(O)O[C@@H](CC[C@H]2C)C[C@H](OC)/C(C)=C/C=C/C=C/[C@@H](C)C[C@@H](C)C(=O)[C@H](OC)[C@H](O)/C(C)=C/[C@H]1C` [Example 13, Rapamycin (Z)-27-O-(methyl)oxime, 42-ester with 4-nitrophenylcarbamic acid], the inhibition at 0.1 µM [1] was 14% and the IC50 [1, 7] was 580 nM.
In the case of `CO/N=C1/C[C@@H]([C@H](C)C[C@@H]2CC[C@@H](OS(=O)(=O)c3ccc(C)cc3)[C@H](OC)C2)OC(=O)[C@@H]2CCCCN2C(=O)C(=O)[C@]2(O)O[C@@H](CC[C@H]2C)C[C@H](OC)/C(C)=C/C=C/C=C/[C@@H](C)C[C@@H](C)C(=O)[C@H](OC)[C@H](O)/C(C)=C/[C@H]1C` [Example 14, Rapamycin (Z)-27-O-(methyl)oxime, 42-ester with 4-methylbenzenesulfonic acid], the inhibition at 0.1 µM [1] is reported as 20% and the IC50 [1, 7] is reported as greater than 1000 nM.
With `CCOC(C)O[C@@H]1CC[C@@H](C[C@@H](C)[C@@H]2C/C(=N/OC)[C@H](C)/C=C(\C)[C@@H](O)[C@@H](OC)C(=O)[C@H](C)C[C@H](C)/C=C/C=C/C=C(\C)[C@@H](OC)C[C@@H]3CC[C@@H](C)[C@@](O)(O3)C(=O)C(=O)N3CCCC[C@H]3C(=O)O2)C[C@H]1OC` (stereo partly drawn) [Example 16, 42-O-(1-Ethoxy-ethyl)-rapamycin-(Z)-27-O-(methyl)oxime] the inhibition at 0.1 µM [1] was 47% and the IC50 [1, 7] was 100 nM.
With `CCOC(C)O[C@@H]1CC[C@@H](C[C@@H](C)[C@@H]2C/C(=N\OC)[C@H](C)/C=C(\C)[C@@H](O)[C@@H](OC)C(=O)[C@H](C)C[C@H](C)/C=C/C=C/C=C(\C)[C@@H](OC)C[C@@H]3CC[C@@H](C)[C@@](O)(O3)C(=O)C(=O)N3CCCC[C@H]3C(=O)O2)C[C@H]1OC` (stereo partly drawn) [Example 17, 42-O-(1-Ethoxy-ethyl)-rapamycin-(E)-27-O-(methyl)oxime] the inhibition at 0.1 µM [1] was 73%, the IC50 [1, 7] was 30 nM and the “Skin Graft mean survival time (days ± SD)” value [2] was 7.8 ± 0.4 days.
`CCCCNC(=O)O[C@@H]1CC[C@@H](C[C@@H](C)[C@@H]2C/C(=N/OC)[C@H](C)/C=C(\C)[C@@H](O)[C@@H](OC)C(=O)[C@H](C)C[C@H](C)/C=C/C=C/C=C(\C)[C@@H](OC)C[C@@H]3CC[C@@H](C)[C@@](O)(O3)C(=O)C(=O)N3CCCC[C@H]3C(=O)O2)C[C@H]1OC` [Example 18, Rapamycin (Z)-27-O-(methyl)oxime-42-ester with butylcarbamic acid] gave an inhibition at 0.1 µM [1] of 18% and an IC50 [1, 7] of 279 nM.
In the case of `CO[C@H]1C[C@@H]2CC[C@@H](C)[C@@](O)(O2)C(=O)C(=O)N2CCCC[C@H]2C(=O)O[C@H]([C@H](C)C[C@@H]2CC[C@@H](O)[C@H](OC)C2)CC(=O)[C@H](C)/C=C(\C)[C@@H](O)[C@@H](OC)C(=O)[C@H](C)C[C@H](C)/C=C/C=C/C=C/1C` [rapamycin], the IC50 [1] is given as 0.4 to 9.8 nM, the “Skin Graft mean survival time (days ± SD)” value [2] is given as 12.0 ± 1.7 days and the “antifungal activity, particularly against Candida albicans” value [3] is given as “found to have antifungal activity, particularly against Candida albicans, both in vitro and in vivo”. For the same compound, the antitumor activity [4] was “has been shown to have antitumor activity”, the “effect in the experimental allergic encephalomyelitis model” value [5] was “effective in the experimental allergic encephalomyelitis model” and the “inhibition of the formation of IgE-like antibodies” value [6] was “effectively inhibited the formation of IgE-like antibodies”.
